Here are results for three compounds from BindingDB's records for patent US11111253 (University of Pittsburgh, 2021).

Structures are written as SMILES.

The target of the assay is T1, Signal transducer and activator of transcription 1-alpha/beta (Homo sapiens, UniProt P42224).
T1 sequence (P42224 whole entry): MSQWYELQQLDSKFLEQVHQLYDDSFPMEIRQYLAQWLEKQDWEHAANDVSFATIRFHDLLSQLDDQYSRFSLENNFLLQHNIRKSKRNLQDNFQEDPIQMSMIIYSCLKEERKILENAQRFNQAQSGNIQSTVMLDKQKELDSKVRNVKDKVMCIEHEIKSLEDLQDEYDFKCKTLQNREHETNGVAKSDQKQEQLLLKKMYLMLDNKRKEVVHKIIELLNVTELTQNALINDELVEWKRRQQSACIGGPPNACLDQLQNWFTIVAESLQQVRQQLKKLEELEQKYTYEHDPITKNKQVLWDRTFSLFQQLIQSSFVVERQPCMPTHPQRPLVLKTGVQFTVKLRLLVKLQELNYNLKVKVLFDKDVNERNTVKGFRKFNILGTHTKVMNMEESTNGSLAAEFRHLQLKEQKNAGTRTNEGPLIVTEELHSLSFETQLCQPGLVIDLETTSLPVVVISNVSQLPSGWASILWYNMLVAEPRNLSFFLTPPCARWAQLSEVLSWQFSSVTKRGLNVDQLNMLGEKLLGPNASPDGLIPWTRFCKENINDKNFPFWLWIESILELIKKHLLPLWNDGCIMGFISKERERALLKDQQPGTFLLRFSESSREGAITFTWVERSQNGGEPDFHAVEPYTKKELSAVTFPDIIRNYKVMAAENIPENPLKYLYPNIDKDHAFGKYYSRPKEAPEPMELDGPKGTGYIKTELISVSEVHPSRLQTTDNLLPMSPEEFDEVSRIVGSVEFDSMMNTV
The assay is described as follows: Bioassay. The procedure: Compound samples (in 3-5 mg quantities) were evaluated in a variety of assays. All compound submissions were fully characterized (1H, 13C, IR, FIRMS), satisfied purity criteria (≥95% LC/MC, ELS).
The term IC50 denotes the concentration needed to halve the response being measured. Read a low IC50 as greater potency in that assay. For the compound `COc1ccc(C2=Nn3c(nnc3-c3cc(-c4ccccc4)n[nH]3)SC2CC(C)C)cc1` (stereo not drawn) [US11111253, Compound 28], the IC50 was greater than 50 µM. Compound `COc1ccc(C2=Nn3c(nnc3-c3cc(-c4ccccc4)n[nH]3)SC2)cc1` [US11111253, Compound 8b] registered an IC50 greater than 50 µM. `CC(C)CC1Sc2nnc(-c3[nH]nc4c3CCC4)n2N=C1c1ccc(Cl)c(Cl)c1` (stereo not drawn) [US11111253, Compound 27]: the IC50 is greater than 50 µM.
